Literature values as cited in US5536812A, “Calcitonin analogue and use thereof” (Sanwa Kagaku Kenkyusho Co., Ltd., priority 1994, dated 1996).

What was measured:
[1] = analogue of Jap. Pat. Hei 4-59795(A) / EP-A-0 464 549
[2] = system: Wister male rat; settings: standard manufactured by Penisula Lab. Inc., Lot No. 015405

For salmon I calcitonin-Hse^33 -NH2, the “biological activities compared with native Salmon I calcitonin” value [1] is given as “substantially same with the native Salmon I calcitonin”.
In the case of eel calcitonin, the “Activity of the eel calcitonin standard” value [2] is listed as 4500 IU/mg.
